Test results from PubChem BioAssay AID1259407 (Chemical Carcinogenesis Research Information System (CCRIS), 2018).
The source made the active and inactive calls. How the calls were made is not given here.

Tested on: CCRIS mutagenicity, Ames/micronucleus/aberration tests
Test: CCRIS mutagenicity studies
[1] = Test System: AMES SALMONELLA TYPHIMURIUM, Strain/Indicator: TA98, Metabolic Activation: NONE, Method: PREINCUBATION
[2] = Test System: AMES SALMONELLA TYPHIMURIUM, Strain/Indicator: TA98, Metabolic Activation: NONE, Method: STANDARD PLATE
[3] = Test System: AMES SALMONELLA TYPHIMURIUM, Strain/Indicator: TA100, Metabolic Activation: NONE, Method: PREINCUBATION
[4] = Test System: AMES SALMONELLA TYPHIMURIUM, Strain/Indicator: TA100, Metabolic Activation: NONE, Method: STANDARD PLATE
[5] = Test System: AMES SALMONELLA TYPHIMURIUM, Strain/Indicator: TA1535, Metabolic Activation: NONE, Method: STANDARD PLATE
[6] = Test System: AMES SALMONELLA TYPHIMURIUM, Strain/Indicator: TA1535, Metabolic Activation: RAT, LIVER, S-9, AROCLOR 1254, Method: STANDARD PLATE
[7] = Test System: AMES SALMONELLA TYPHIMURIUM, Strain/Indicator: TA1537, Metabolic Activation: NONE, Method: STANDARD PLATE
[8] = Test System: AMES SALMONELLA TYPHIMURIUM, Strain/Indicator: TA1537, Metabolic Activation: RAT, LIVER, S-9, AROCLOR 1254, Method: STANDARD PLATE
[9] = Test System: AMES SALMONELLA TYPHIMURIUM, Strain/Indicator: TA1538, Metabolic Activation: NONE, Method: STANDARD PLATE
[10] = Test System: AMES SALMONELLA TYPHIMURIUM, Strain/Indicator: TA1538, Metabolic Activation: RAT, LIVER, S-9, AROCLOR 1254, Method: STANDARD PLATE
[11] = Test System: AMES SALMONELLA TYPHIMURIUM, Strain/Indicator: TA100, Metabolic Activation: RAT, LIVER, S-9, PHENOBARBITAL AND 5,6-BENZOFLAVONE, Method: PREINCUBATION

NCCNCCNCCN
mutagenic call (Test System: AMES SALMONELLA TYPHIMURIUM, Strain/Indicator: TA98, Metabolic Activation: HAMSTER, LIVER, S-9, AROCLOR 1254 (10%), Method: PREINCUBATION): active; positive | mutagenic call [1]: active; positive | mutagenic call [2]: active; positive | mutagenic call (Test System: AMES SALMONELLA TYPHIMURIUM, Strain/Indicator: TA98, Metabolic Activation: RAT, LIVER, S-9, AROCLOR 1254 (10%), Method: PREINCUBATION): active; positive | mutagenic call (Test System: AMES SALMONELLA TYPHIMURIUM, Strain/Indicator: TA98, Metabolic Activation: RAT, LIVER, S-9, PCB, Method: PREINCUBATION): active; positive | mutagenic call (Test System: AMES SALMONELLA TYPHIMURIUM, Strain/Indicator: TA100, Metabolic Activation: HAMSTER, LIVER, S-9, AROCLOR 1254 (10%), Method: PREINCUBATION): active; positive | mutagenic call [3]: active; positive | mutagenic call [4]: active; positive | mutagenic call (Test System: AMES SALMONELLA TYPHIMURIUM, Strain/Indicator: TA100, Metabolic Activation: RAT, LIVER, S-9, AROCLOR 1254 (10%), Method: PREINCUBATION): active; positive | mutagenic call (Test System: AMES SALMONELLA TYPHIMURIUM, Strain/Indicator: TA100, Metabolic Activation: RAT, LIVER, S-9, PCB, Method: PREINCUBATION): active; positive | mutagenic call (Test System: AMES SALMONELLA TYPHIMURIUM, Strain/Indicator: TA1535, Metabolic Activation: HAMSTER, LIVER, S-9, AROCLOR 1254 (10%), Method: PREINCUBATION): active; positive | mutagenic call (Test System: AMES SALMONELLA TYPHIMURIUM, Strain/Indicator: TA1535, Metabolic Activation: NONE, Method: PREINCUBATION): active; positive | mutagenic call [5]: inactive; negative | mutagenic call (Test System: AMES SALMONELLA TYPHIMURIUM, Strain/Indicator: TA1535, Metabolic Activation: RAT, LIVER, S-9, AROCLOR 1254 (10%), Method: PREINCUBATION): active; positive | mutagenic call [6]: active; positive | mutagenic call (Test System: AMES SALMONELLA TYPHIMURIUM, Strain/Indicator: TA1537, Metabolic Activation: HAMSTER, LIVER, S-9, AROCLOR 1254 (10%), Method: PREINCUBATION): active; positive | mutagenic call (Test System: AMES SALMONELLA TYPHIMURIUM, Strain/Indicator: TA1537, Metabolic Activation: NONE, Method: PREINCUBATION): active; positive | mutagenic call [7]: active; positive | mutagenic call (Test System: AMES SALMONELLA TYPHIMURIUM, Strain/Indicator: TA1537, Metabolic Activation: RAT, LIVER, S-9, AROCLOR 1254 (10%), Method: PREINCUBATION): active; positive | mutagenic call [8]: inactive; negative | mutagenic call [9]: active; positive | mutagenic call [10]: inactive; negative | mutagenic call (Test System: CHINESE HAMSTER OVARY, Strain/Indicator: CHO (HGPRT)/6-THIOGUANINE, Metabolic Activation: NONE): inactive; negative | mutagenic call (Test System: CHINESE HAMSTER OVARY, Strain/Indicator: CHO (HGPRT)/6-THIOGUANINE, Metabolic Activation: RAT, LIVER, S-9, AROCLOR 1254): inactive; negative | mutagenic call (Test System: UDS RAT HEPATOCYTES, Strain/Indicator: THY INCORP, Metabolic Activation: NONE, Method: SCINTILLATION SPECTROMETRY): active; positive

O=[N+]([O-])c1cc(C(F)(F)F)cc([N+](=O)[O-])c1O
mutagenic call [2]: inactive; negative | mutagenic call (Test System: AMES SALMONELLA TYPHIMURIUM, Strain/Indicator: TA98, Metabolic Activation: RAT, LIVER, S-9, AROCLOR 1254, Method: STANDARD PLATE): inactive; negative | mutagenic call [4]: inactive; negative | mutagenic call (Test System: AMES SALMONELLA TYPHIMURIUM, Strain/Indicator: TA100, Metabolic Activation: RAT, LIVER, S-9, AROCLOR 1254, Method: STANDARD PLATE): inactive; negative | mutagenic call [5]: inactive; negative | mutagenic call [6]: inactive; negative | mutagenic call [7]: inactive; negative | mutagenic call [8]: inactive; negative | mutagenic call [9]: inactive; negative | mutagenic call [10]: inactive; negative

COc1cc(-c2ccc(-[n+]3nc(-c4ccccc4)nn3-c3ccc([N+](=O)[O-])cc3)c(OC)c2)ccc1-[n+]1nc(-c2ccccc2)nn1-c1ccc([N+](=O)[O-])cc1
mutagenic call [4]: active; positive | mutagenic call (Test System: AMES SALMONELLA TYPHIMURIUM, Strain/Indicator: TA100, Metabolic Activation: S-9 MIX, Method: STANDARD PLATE): active; positive

Fc1ccc2ccc3cccnc3c2c1
mutagenic call [11]: active; positive

N=c1ccn2c(n1)O[C@H]1[C@H](O)[C@@H](CO)O[C@H]12
mutagenic call (Test System: AMES SALMONELLA TYPHIMURIUM, Strain/Indicator: TA98, Metabolic Activation: S-9, Method: STANDARD PLATE): inactive; negative | mutagenic call (Test System: AMES SALMONELLA TYPHIMURIUM, Strain/Indicator: TA100, Metabolic Activation: S-9, Method: STANDARD PLATE): inactive; negative | mutagenic call (Test System: AMES SALMONELLA TYPHIMURIUM, Strain/Indicator: TA1537, Metabolic Activation: S-9, Method: STANDARD PLATE): inactive; negative | mutagenic call (Test System: E. COLI, Strain/Indicator: WP2 (HCR), Metabolic Activation: S-9, Method: STANDARD PLATE): inactive; negative

COc1cccc2c1OC1(C)OOC21C (configuration not stated)
mutagenic call [3]: active; positive

COC(=O)C(=Cc1ccc(Br)o1)[N+](=O)[O-]
mutagenic call [1]: inactive; negative

Clc1cnc2ccccc2c1
mutagenic call [11]: inactive; negative

CC(=O)N(O)CCCCCNC(=O)CCC(=O)N(O)CCCCCNC(=O)CCC(=O)N(O)CCCCCN
mutagenic call (Test System: MOUSE LYMPHOMA, Strain/Indicator: L5178Y (TK+/TK-), Metabolic Activation: NONE, Method: SUSPENSION/PLATE): active; positive. reevaluation of results: positive | mutagenic call (Test System: MOUSE LYMPHOMA, Strain/Indicator: L5178Y (TK+/TK-), Metabolic Activation: RAT, LIVER, S-9, AROCLOR 1254, Method: SUSPENSION/PLATE): active; positive. reevaluation of results: positive
